The source of these data is patent US11414416B1, “Compounds and uses thereof” (Foghorn Therapeutics Inc., priority 2019, dated 2022).

SMILES strings stand for the structures.

Nanoluciferase-BRD9 fusion protein, sequence (Q9H8M2 whole entry, the tested form may be a part): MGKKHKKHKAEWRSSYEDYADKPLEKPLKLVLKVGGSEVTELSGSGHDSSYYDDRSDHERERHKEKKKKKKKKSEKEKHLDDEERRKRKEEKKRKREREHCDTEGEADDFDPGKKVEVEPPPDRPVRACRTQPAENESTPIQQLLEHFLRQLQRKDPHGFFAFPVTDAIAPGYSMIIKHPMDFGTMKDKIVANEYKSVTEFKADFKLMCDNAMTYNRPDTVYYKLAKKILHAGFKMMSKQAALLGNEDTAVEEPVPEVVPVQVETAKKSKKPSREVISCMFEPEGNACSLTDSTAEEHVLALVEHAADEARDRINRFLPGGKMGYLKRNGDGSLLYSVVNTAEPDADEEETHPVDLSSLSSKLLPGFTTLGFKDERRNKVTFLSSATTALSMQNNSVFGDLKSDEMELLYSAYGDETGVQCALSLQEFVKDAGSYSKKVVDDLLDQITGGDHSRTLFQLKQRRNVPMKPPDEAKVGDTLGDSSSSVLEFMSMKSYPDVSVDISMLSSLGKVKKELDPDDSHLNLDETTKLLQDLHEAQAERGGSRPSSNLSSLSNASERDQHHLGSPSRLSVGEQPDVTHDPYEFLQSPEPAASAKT

The first assay deals with Nanoluciferase-BRD9 fusion protein (Homo sapiens (Human), UniProt Q9H8M2). In words: SYO1 BRD9 NanoLuc degradation assay. The assay is classed as cell-based. The conditions noted are these: Table 5B; SYO-1 cells expressing 3×FLAG-NLuc-BRD9, 6 hours; read-out: SYO1 BRD9-NanoLuc degradation IC50. In outline:
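Degradation was read as loss of nanoluciferase signal (Nano-Glo) after 6 h compound exposure in a stable SYO-1 line carrying 3×FLAG-NLuc-BRD9 (8000 cells/well). Normalised between DMSO (high) and a 1 μM known BRD9 degrader (low).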
`C=CCn1cc(-c2cc(OC)c(CN3CC(CN4CCC5(CC4)CN(c4ccc6c(c4)C(=O)N(C4CCC(=O)NC4=O)C6=O)C5)C3)c(OC)c2)cc(C)c1=O` (stereo not drawn) [Compound D348]: the DC50 was below 10 nM.

On to `COc1cc(-c2cn(C)c(=O)cc2C)cc(OC)c1CN1CC(CN2CCC3(CC2)CN(c2ccc4c(c2)C(=O)N(C2CCC(=O)NC2=O)C4=O)C3)C1` (stereo not drawn) [Compound D349], for which the DC50 was below 10 nM.

In the case of `CNC(=O)NCc1cc(-c2cc(OC)c(CN3CC(CN4CCC5(CC4)CN(c4ccc6c(c4)C(=O)N(C4CCC(=O)NC4=O)C6=O)C5)C3)c(OC)c2)cn(C)c1=O` (stereo not drawn) [Compound D350], the DC50 fell in the range of 100 to 1000 nM.

For the molecule `COc1cc(-c2cn(C)c(=O)c(C#N)c2C)cc(OC)c1CN1CC(CN2CCC3(CC2)CN(c2ccc4c(c2)C(=O)N(C2CCC(=O)NC2=O)C4=O)C3)C1` (stereo not drawn) [Compound D351], the DC50 was above 1000 nM.

For the molecule `COc1cc(-c2cc(C#N)c(=O)n(C)c2)cc(OC)c1CN1CC(CN2CCC3(CC2)CN(c2ccc4c(c2)C(=O)N(C2CCC(=O)NC2=O)C4=O)C3)C1` (stereo not drawn) [Compound D352], the DC50 was above 1000 nM.

With `COc1cc(-c2cc(C)c(=O)n(C)c2)c(OC)cc1CN1CC(CN2CCC3(CC2)CN(c2ccc4c(c2)C(=O)N(C2CCC(=O)NC2=O)C4=O)C3)C1` (stereo not drawn) [Compound D353], the DC50 was below 10 nM.

For `COc1cc(-c2cn(C)c(=O)c(C)c2C)c(OC)cc1CN1CC(CN2CCC3(CC2)CN(c2ccc4c(c2)C(=O)N(C2CCC(=O)NC2=O)C4=O)C3)C1` (stereo not drawn) [Compound D354], the DC50 was below 10 nM.

In the case of `CNC(=O)N(C)Cc1cc(-c2cc(OC)c(CN3CC(CN4CCC5(CC4)CN(c4ccc6c(c4)C(=O)N(C4CCC(=O)NC4=O)C6=O)C5)C3)c(OC)c2)cn(C)c1=O` (stereo not drawn) [Compound D355], the DC50 is above 1000 nM.

For `COc1cc(-c2cn(C)c(=O)c3ccccc23)cc(OC)c1CN1CC(CN2CCC3(CC2)CN(c2ccc4c(c2)C(=O)N(C2CCC(=O)NC2=O)C4)C3)C1` (stereo not drawn) [Compound D356], the DC50 is below 10 nM.

For the molecule `COc1cc(-c2cc(C)c(=O)n(C)n2)cc(OC)c1CN1CCC2(CC1)CN(c1ccc3c(c1)CN(C1CCC(=O)NC1=O)C3=O)C2` (stereo not drawn) [Compound D357], the DC50 is below 10 nM.

Consider `COc1cc(-c2cc(C)c(=O)n(C)n2)cc(OC)c1CN1CCC2(CC1)CN(c1ccc3c(c1)C(=O)N(C1CCC(=O)NC1=O)C3)C2` (stereo not drawn) [Compound D358], for which the DC50 is below 10 nM.

For the molecule `COc1cc(-c2cc(C)c(=O)n(C)c2C)c(OC)cc1CN1CC(CN2CCC3(CC2)CN(c2ccc4c(c2)C(=O)N(C2CCC(=O)NC2=O)C4=O)C3)C1` (stereo not drawn) [Compound D359], the DC50 is below 10 nM.

With `COc1cc(-c2cn(C)c(=O)c3ccccc23)cc(OC)c1CN1CC(CN2CCC3(CC2)CN(c2ccc4c(c2)CN(C2CCC(=O)NC2=O)C4=O)C3)C1` (stereo not drawn) [Compound D360], the DC50 was below 10 nM.

In the case of `COc1cc(-c2cn(C)c(=O)c3cncn23)cc(OC)c1CN1CC(CN2CCC3(CC2)CN(c2ccc4c(c2)C(=O)N(C2CCC(=O)NC2=O)C4)C3)C1` (stereo not drawn) [Compound D361], the DC50 was below 10 nM.

Consider `COc1cc(-c2cn(C)c(=O)c(C)c2C)cc(OC)c1CN1CCN(CCC2CCN(c3ccc4c(c3)CN(C3CCC(=O)NC3=O)C4=O)CC2)CC1` (stereo not drawn) [Compound D362], for which the DC50 was below 10 nM.

As to `COc1cc(-c2cn(C)c(=O)c3cncn23)cc(OC)c1CN1CC(CN2CCC3(CC2)CN(c2ccc4c(c2)CN(C2CCC(=O)NC2=O)C4=O)C3)C1` (stereo not drawn) [Compound D363], the DC50 is below 10 nM.

Regarding `CNC(=O)NCc1cc(-c2cc(OC)c(CN3CC(CN4CCC5(CC4)CN(c4ccc6c(c4)C(=O)N(C4CCC(=O)NC4=O)C6)C5)C3)c(OC)c2)cn(C)c1=O` (stereo not drawn) [Compound D364], the DC50 is 100 to 1000 nM.

For the molecule `COc1cc(-c2cn(C)c(=O)n3ccnc23)cc(OC)c1CN1CC(CN2CCC3(CC2)CN(c2ccc4c(c2)C(=O)N(C2CCC(=O)NC2=O)C4)C3)C1` (stereo not drawn) [Compound D365], the DC50 is 10 to 100 nM.

Regarding `COc1cc(-c2cn(C)c(=O)c3ccnnc23)cc(OC)c1CN1CCC(CN2CCC3(CC2)CC(Oc2ccc4c(c2)CN(C2CCC(=O)NC2=O)C4=O)C3)CC1` (stereo not drawn) [Compound D366], the DC50 is below 10 nM.

Take `COc1cc(-c2cn(C)c(=O)c3cnncc23)cc(OC)c1CN1CCC(CN2CCC3(CC2)CC(Oc2ccc4c(c2)CN(C2CCC(=O)NC2=O)C4=O)C3)CC1` (stereo not drawn) [Compound D367]: the DC50 is below 10 nM.

Turning to `COc1cc(-c2cn(C)c(=O)c3cnncc23)cc(OC)c1CN1CCC(CN2CCC3(CC2)CC(Oc2ccc4c(c2)C(=O)N(C2CCC(=O)NC2=O)C4)C3)CC1` (stereo not drawn) [Compound D368], the DC50 was below 10 nM.

Take `COc1cc(-c2cn(C)c(=O)c3cnn(C)c23)cc(OC)c1CN1CC(CN2CCC3(CC2)CN(c2ccc4c(c2)CN(C2CCC(=O)NC2=O)C4=O)C3)C1` (stereo not drawn) [Compound D369]: the DC50 is below 10 nM.

Regarding `COc1cc(-c2cn(C)c(=O)c3cn(C)nc23)cc(OC)c1CN1CC(CN2CCC3(CC2)CN(c2ccc4c(c2)CN(C2CCC(=O)NC2=O)C4=O)C3)C1` (stereo not drawn) [Compound D370], the DC50 is below 10 nM.

As for `COc1cc(-c2cn(C)c(=O)c3nc(O)ccc23)cc(OC)c1CN1CCC(CN2CCC3(CC2)CC(Oc2ccc4c(c2)CN(C2CCC(=O)NC2=O)C4=O)C3)CC1` (stereo not drawn) [Compound D371], the DC50 is below 10 nM.

Staying with this assay, now noted: Table 5C; SYO-1 cells expressing 3×FLAG-NLuc-BRD9, 6 hours; read-out: SYO1 BRD9-NanoLuc degradation IC50.
Regarding `COc1cc(-c2cn(C)c(=O)c3cnccc23)cc(OC)c1CN1CC(Oc2ccc3c(c2)C(=O)N(C2CCC(=O)NC2=O)C3=O)C1` (stereo not drawn) [Compound D372], the DC50 was below 10 nM.

Consider `COc1cc(-c2cn(C)c(=O)c3cnccc23)cc(OC)c1CN1CCC2(CC1)CN(c1ccc3c(c1)C(=O)N(C1CCC(=O)NC1=O)C3=O)C2` (stereo not drawn) [Compound D373], for which the DC50 is below 10 nM.

Consider `COc1cc(-c2cn(C)c(=O)c3cnccc23)cc(OC)c1CN1CCC2(CC1)CN(c1ccc3c(c1)CN(C1CCC(=O)NC1=O)C3=O)C2` (stereo not drawn) [Compound D374], for which the DC50 is below 10 nM.

On to `COc1cc(-c2cn(C)c(=O)c3cnccc23)cc(OC)c1CN1CC(Oc2ccc3c(c2)CN(C2CCC(=O)NC2=O)C3=O)C1` (stereo not drawn) [Compound D375], for which the DC50 was below 10 nM.

`COc1cc(-c2cn(C)c(=O)c3cnccc23)cc(OC)c1CN1CC(Oc2ccc3c(c2)C(=O)N(C2CCC(=O)NC2=O)C3=O)C1C` (stereo not drawn) [Compound D376]: the DC50 is below 10 nM.

Consider `COc1cc(-c2cn(C)c(=O)c3cnccc23)cc(OC)c1CN1CCC2(CC1)CN(c1ccc3c(c1)C(=O)N(C1CCC(=O)NC1=O)C3)C2` (stereo not drawn) [Compound D377], for which the DC50 was below 10 nM.

As to `COc1cc(-c2cn(C)c(=O)c3cnccc23)cc(OC)c1CN1CC(Oc2ccc3c(c2)C(=O)N(C2CCC(=O)NC2=O)C3)C1` (stereo not drawn) [Compound D378], the DC50 was below 10 nM.

Turning to `COc1cc(-c2cn(C)c(=O)c3cnccc23)cc(OC)c1CN1CCC(CN2CCC3(CN(c4ccc5c(c4)CN(C4CCC(=O)NC4=O)C5=O)C3)C(F)(F)C2)CC1` (stereo not drawn) [Compound D379], the DC50 is below 10 nM.

In the case of `COc1cc(C(=O)N2CCC3(CC2)CN(c2ccc4c(c2)C(=O)N(C2CCC(=O)NC2=O)C4)C3)cc(-c2cn(C)c(=O)c3cnccc23)c1` (stereo not drawn) [Compound D380], the DC50 fell in the range of 10 to 100 nM.

For the molecule `COc1cc(-c2cn(C)c(=O)c3cnccc23)cc(OC)c1CN1CC(Oc2ccc3c(c2)C(=O)N(C2CCC(=O)N(COC(=O)[C@@H](N)C(C)C)C2=O)C3=O)C1` (stereo partly drawn) [Compound D381], the DC50 is below 10 nM.

For `COc1cc(-c2cn(C)c(=O)c3cnccc23)cc(OC)c1CN1CCC2(CC1)CN(c1ccc3c(c1)C(=O)N(C1CC(=O)NC1=O)C3)C2` (stereo not drawn) [Compound D382], the DC50 was below 10 nM.

As for `COc1cc(-c2cn(C)c(=O)c3cnccc23)cc(OC)c1CN1CCC2(CC1)CN(c1ccc3c(c1)C(=O)N(C1CC(=O)NC1=O)C3=O)C2` (stereo not drawn) [Compound D383], the DC50 was above 1000 nM.

`COc1cc(-c2cn(C)c(=O)c3cnccc23)cc(OC)c1CN1CC(Oc2ccc3c(c2)CN(C2CCC(=O)N(COC(=O)[C@@H](N)C(C)C)C2=O)C3=O)C1` (stereo partly drawn) [Compound D384]: the DC50 is below 10 nM.

Take `CCc1cc(-c2cn(C)c(=O)c3cnccc23)cc(OC)c1CN1CC(Oc2ccc3c(c2)C(=O)N(C2CCC(=O)NC2=O)C3=O)C1` (stereo not drawn) [Compound D385]: the DC50 was below 10 nM.

For the molecule `CCc1cc(-c2cn(C)c(=O)c3cnccc23)cc(OC)c1CN1CC(Oc2ccc3c(c2)C(=O)N(C2CCC(=O)NC2=O)C3=O)C1C` (stereo not drawn) [Compound D386], the DC50 was below 10 nM.

On to `COc1cc(CN2CCC3(CC2)CN(c2ccc4c(c2)C(=O)N(C2CCC(=O)NC2=O)C4)C3)cc(-c2cn(C)c(=O)c3cnccc23)c1` (stereo not drawn) [Compound D387], for which the DC50 is below 10 nM.

For the molecule `COc1cc(-c2cn(C)c(=O)c3cnccc23)cc(OC)c1CN1CCC2(CC1)CN(c1ccc3c(c1)C(=O)N(C1CCCC(=O)NC1=O)C3=O)C2` (stereo not drawn) [Compound D388], the DC50 is below 10 nM.

With `COc1cc(-c2cn(C)c(=O)c3cnccc23)cc(OC)c1CN1CCC2(CC1)CN(c1ccc3c(c1)C(=O)N(C1CCCNC1=O)C3)C2` (stereo not drawn) [Compound D389], the DC50 is above 1000 nM.

On to `COc1cc(-c2cn(C)c(=O)c3cnccc23)cc(OC)c1CN1CCC2(CC1)CN(c1ccc3c(c1)C(=O)N(C1CCC(=O)NC1)C3)C2` (stereo not drawn) [Compound D390], for which the DC50 is above 1000 nM.

`COc1cc(-c2cn(C)c(=O)c3cnccc23)cc(OC)c1CN1CCC2(CC1)CN(c1ccnc(C(=O)NC3CCC(=O)NC3=O)n1)C2` (stereo not drawn) [Compound D391]: the DC50 fell in the range of 100 to 1000 nM.

On to `COc1cc(-c2cn(C)c(=O)c3cnccc23)cc(OC)c1CN1CCC2(CC1)CN(c1cccc(C(=O)NC3CCC(=O)NC3=O)c1)C2` (stereo not drawn) [Compound D392], for which the DC50 lay within 10 to 100 nM.

For `COc1cc(-c2cn(C)c(=O)c3cnccc23)cc(OC)c1CN1CCC(c2cnn(C3CCC(=O)NC3=O)c2)CC1` (stereo not drawn) [Compound D393], the DC50 lay in the range of 10 to 100 nM.

Turning to `COc1cc(-c2cn(C)c(=O)c3cnccc23)cc(OC)c1CN1CCC(c2cc(=O)n(C3CCC(=O)NC3=O)c(C)n2)CC1` (stereo not drawn) [Compound D394], the DC50 was above 1000 nM.

Consider `COc1cc(-c2cn(C)c(=O)c3cnccc23)cc(OC)c1CN1CCC2(CC1)CN(c1cc(C(=O)NC3CCC(=O)NC3=O)ncn1)C2` (stereo not drawn) [Compound D395], for which the DC50 is below 10 nM.
